Drawing on BindingDB's records for doi:10.1021/jm00147a007 (1985), this text covers IC50 for four compounds.

Broadly, the IC50 is the concentration that gives 50% inhibition. A high value points to lower potency.

For this assay, the target named is Aminopeptidase N (Oryctolagus cuniculus) (UniProt P15541). Kind of assay: Inhibitory activity against rabbit kidney aminopeptidase using 10 nM of [3H]Leu-enkephalin as substrate.
Chain of Aminopeptidase N (Oryctolagus cuniculus) (P15541 whole entry, looked up): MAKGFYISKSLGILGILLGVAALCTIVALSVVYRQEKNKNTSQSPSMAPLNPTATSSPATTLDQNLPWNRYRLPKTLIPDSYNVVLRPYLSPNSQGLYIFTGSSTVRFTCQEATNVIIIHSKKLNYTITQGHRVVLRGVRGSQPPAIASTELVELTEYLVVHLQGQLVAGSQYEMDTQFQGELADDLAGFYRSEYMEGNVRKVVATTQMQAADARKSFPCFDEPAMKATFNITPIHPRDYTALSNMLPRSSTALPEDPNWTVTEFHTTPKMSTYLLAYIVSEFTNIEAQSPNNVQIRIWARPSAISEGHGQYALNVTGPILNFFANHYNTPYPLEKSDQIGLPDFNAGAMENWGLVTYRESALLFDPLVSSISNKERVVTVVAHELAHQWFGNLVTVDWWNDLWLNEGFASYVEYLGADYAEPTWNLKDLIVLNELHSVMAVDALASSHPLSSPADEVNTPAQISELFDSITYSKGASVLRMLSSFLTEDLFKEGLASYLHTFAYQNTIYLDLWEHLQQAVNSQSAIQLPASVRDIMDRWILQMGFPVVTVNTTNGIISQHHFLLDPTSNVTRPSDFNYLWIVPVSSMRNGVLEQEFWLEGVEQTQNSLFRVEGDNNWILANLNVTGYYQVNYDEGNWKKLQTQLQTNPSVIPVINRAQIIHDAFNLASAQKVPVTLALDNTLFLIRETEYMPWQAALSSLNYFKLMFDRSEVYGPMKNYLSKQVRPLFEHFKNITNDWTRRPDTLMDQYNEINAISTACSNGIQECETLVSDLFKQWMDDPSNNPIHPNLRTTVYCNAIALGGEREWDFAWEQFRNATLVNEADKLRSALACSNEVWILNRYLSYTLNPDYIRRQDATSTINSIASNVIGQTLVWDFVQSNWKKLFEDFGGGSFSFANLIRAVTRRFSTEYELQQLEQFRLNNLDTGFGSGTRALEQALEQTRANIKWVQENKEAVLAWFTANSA

Take `O=C(O)CNC(=O)C(Cc1ccccc1)C(=O)NO` (racemic): the concentration for half-maximal inhibition (IC50) was 100 µM.
Regarding `C[C@H](NC(=O)[C@@H](CC(=O)NO)Cc1ccccc1)C(=O)O` (racemic) [(RS)-2-(2-Benzyl-3-hydroxycarbamoyl-propionylamino)-propionic acid], 0.71 µM corresponded to half-maximal inhibition (IC50).
Under `O=CN(O)C(Cc1ccccc1)C(=O)NCC(=O)O` (centres undefined) [[2-(Formyl-hydroxy-amino)-3-phenyl-propionylamino]-acetic acid] stands 25 µM; under `O=CN(O)CC(Cc1ccccc1)C(=O)NCC(=O)O` (centres undefined) [[2-Benzyl-3-(formyl-hydroxy-amino)-propionylamino]-acetic acid], 0.85 µM.
